Columns and labels:
[1] = test system: phenylbenzoquinone writhing test; assay: Phenylbenzoquinone writhing test in the mouse (ED50 and duration of effect); type: in vivo; conditions: for % INHI-BITION / N° OF WRITHES IN 10' ml ± E.S.: Table 6, oral, one hour before the test; for N° OF WRITHES IN 10' ml ± E.S.: controls 52.4 ± 1.69; for % INHIBITION / Nº OF WRITHES IN 10' ml ± E.S.: Table 7, oral 1 mg/kg; for Nº OF WRITHES IN 10' ml ± E.S.: controls 53.2 ± 1.26
Experimental: The analgesic effect was determined by the number of writhes of the abdomen recorded during 10 minutes (from 5 to 15 minutes after the phenylbenzo quinone injection).

gastric ulceration = type: in vivo, rat; conditions: os, 400 mg/kg
Experimental: To rats fasted for 18 hours, with water ad libitum, were administered the compounds under test at "0" time and after 2 hours. Control rats were treated with established anti-inflammatory agents.
6 Hours after the beginning of the test, the animals were killed by ether inhalation.
Gastric ulceration was assessed on the ground of values ranging from 0 to 4: • 0 = no ulceration; • 1 = slight iperhaemia and/or a few ulcers; • 2 = severe iperhaemia and many punctiform ulcers; • 3 = severe submucosal hemorrage, one large ulcer and many punctiform ulcers; • 4 severe submucosal hemorrage and many large ulcers.
The ulcerogenic index was measured by the following formula (Lwoff. J.M., J. Pharmacol., 2, 81, 1971): [formula]

carrageenin oedema = assay: Antiinflammatory activity: carrageenin oedema in the rat; type: in vivo; conditions: po, 4 h, os, 100 mg/kg, one hour before carrageenin, read-out: OEDEMA INHIBITION % at the fourth hour
Experimental: (§1) The activity tests were carried out on male Spra gue-Dawley rats weighing 200+20 g and on male Swiss mice weighing 26+3 g.
(§2) The test compounds were administered orally by means of gastroesophageal tube, in the form of a suspen sion in a 10 ml/kg mucilage of 5% gum arabic; and intraperitoneally in the form of an aqueous suspen sion added with a few drops of Tween 80, in the con stant volume of 10 ml/kg.
The compounds under test and the control ones were administered orally one hour before the injection of 0.1 ml of 1% carrageenin in the right paw of the animals.
The volume of the paw was measured by means of a plethysmograph immediately before the injection and 2, 4 and 6 hours after.
The results were expressed as percentage inhibi tion of the oedema in the treated animals in comparison with the control animals, at the time of the maximum oedema development (fourth hour after the carrageenin injection).

[2] = test system: Writhing test induced by phenyl-benzoquinone; assay: Phenylbenzoquinone writhing test in the rat; type: in vivo
Experimental: as §1, §2

acetic acid peritonitis = assay: Anti-exudative activity: acetic acid peritonitis in the rat; type: in vivo; conditions: for EXUDATE VOLUME ml ± E.S.: controls 2.58 ± 0.18
Experimental: The test was carried out according to the procedure described by Arrigoni-Martelli (Boll.Chim. Far. 107, 29, 1968). This method is based upon the evaluation of the anti-exudative effect of a drug at the peritoneal level, following a intraperitoneal injection of 10 ml/kg of a 0.5% acetic acid solution.
The compounds under test were administered oral ly one hour before the inflammatory agent; 30 minutes after the treatment the animals were killed and the fluid from the peritoneal cavity was drawn and measured.
The test compounds were administered by oral route 1 hour before intraperitoneal injection of acetic acid (10 ml/kg of a 0.5% solution).
The anti-exudative activity was determined on the basis of the peritoneal exudate of the treated animals, in comparison with the controls.

Carrageenin pleuritis = Carrageenin pleuritis in the rat; type: in vivo; conditions: for EXUDATE VOLUME: 30 min. before carrageenin and 6 hours after, exudate at 18 hours, controls 2.76 ± 0.38
Experimental: Compound HA-34 was tested for the protective activity against the exudative pleuritis reaction induced by carrageenin. HA-34 was administered 30 min. before the injection of carrageenin, and 6 hours after it. The experiment was carried out on male Spra- gue-Dawley rats, anestethized with ethyl urethane, which were subjected, in their right pleural cavity, to injection of 1.5 ml of air and then 0.1 ml of a 1% carrageenin solution, in sterile normal saline, according to the procedure by Van Armann et al. (J. Pharmac. Exp. Ther., 150, 328, 1965). Indometha cin and Piroxicam were employed as the control drugs, under the same conditions. 18 Hours after the intrapleuric carrageenin injec tion, the animals were killed by means of ether inhalation, and the pleuric exudate was collected and measured.

[3] = 30 min. before phenylbenzoquinone

Compound: CSc1nn2c(=O)c3c4c(sc3nc2s1)CCCC4 [HA 34, 2-Methyl-mercapto-6,7,8,9-tetrahydro-5H[1]-benao-thieno[2,3-d]-1,3,4-thiadiazole[3,2-a]pyrimidin-5[H]-one]
- ED50 ([1]; Mus musculus, 1 h, oral administration one hour before the test, read-out: ED50): 1 mg/kg
- % INHI-BITION ([1]; 0.1 mg/kg): 15.8%
- N° OF WRITHES IN 10' ml ± E.S. ([1]; 0.1 mg/kg): 44.1 ± 1.12
- % INHI-BITION ([1]; 0.5 mg/kg): 31.3%
- N° OF WRITHES IN 10' ml ± E.S. ([1]; 0.5 mg/kg): 36.0 ± 1.33
- % INHI-BITION ([1]; 1 mg/kg): 67.2%
- N° OF WRITHES IN 10' ml ± E.S. ([1]; 1 mg/kg): 17.2 ± 0.87
- % INHI-BITION ([1]; 2 mg/kg): 73.6%
- N° OF WRITHES IN 10' ml ± E.S. ([1]; 2 mg/kg): 13.8 ± 1.12
- % INHI-BITION ([1]; 5 mg/kg): 79.8%
- N° OF WRITHES IN 10' ml ± E.S. ([1]; 5 mg/kg): 10.6 ± 1.06
- % INHIBITION [1, 3]: 63.9%
- Nº OF WRITHES IN 10' ml ± E.S. [1, 3]: 19.2 ± 1.18
- % INHIBITION ([1]; 1 h before phenylbenzoquinone): 65.4%
- Nº OF WRITHES IN 10' ml ± E.S. ([1]; 1 h before phenylbenzoquinone): 18.4 ± 1.07
- % INHIBITION ([1]; 3 h before phenylbenzoquinone): 69.9%
- Nº OF WRITHES IN 10' ml ± E.S. ([1]; 3 h before phenylbenzoquinone): 16.0 ± 1.26
- % INHIBITION ([1]; 4 h before phenylbenzoquinone): 65.4%
- Nº OF WRITHES IN 10' ml ± E.S. ([1]; 4 h before phenylbenzoquinone): 18.4 ± 1.74
- % INHIBITION ([1]; 6 h before phenylbenzoquinone): 62.0%
- Nº OF WRITHES IN 10' ml ± E.S. ([1]; 6 h before phenylbenzoquinone): 20.2 ± 1.24
- % INHIBITION ([1]; 8 h before phenylbenzoquinone): 59.4%
- Nº OF WRITHES IN 10' ml ± E.S. ([1]; 8 h before phenylbenzoquinone): 21.6 ± 1.32
- % INHIBITION ([1]; 24 h before phenylbenzoquinone): 58.3%
- Nº OF WRITHES IN 10' ml ± E.S. ([1]; 24 h before phenylbenzoquinone): 22.2 ± 1.46
- % INHIBITION ([1]; 32 h before phenylbenzoquinone): 30.6%
- Nº OF WRITHES IN 10' ml ± E.S. ([1]; 32 h before phenylbenzoquinone): 36.9 ± 2.01
- duration of action ([1]; oral 1 mg/kg, result in words): longer lasting than that of Indomethacin and substantially comparable with that of Piroxicam
- ULCERA-TION INDEX (gastric ulceration): 0
- % ANIMALS WITH ULCERS (gastric ulceration; at 0 time and after 2 hours, killed at 6 hours): 0%
- ULCERA-TION DEGREE (gastric ulceration; scale 0 to 4): 0
- inhibition in vivo at 100 mg/kg (carrageenin oedema): 48.8 ± 0.91%
- inhibition in vivo at 0.5 mg/kg ([2]; Rattus norvegicus, po, 10 min, os, 0.5 mg/kg, read-out: % INHIBI-TION): 24%
- inhibition in vivo at 5 mg/kg ([2]; Rattus norvegicus, po, 10 min, os, 5 mg/kg, read-out: % INHIBI-TION): 81%
- analgesic action ([2]; oral doses of 5 and 0.5 mg/kg, result in words): the more active of the tested compounds
- inhibition in vivo at 10 mg/kg (acetic acid peritonitis; Rattus norvegicus, po, Table 4, os, 10 mg/kg): 64%
- inhibition in vivo at 0.1 mg/kg (acetic acid peritonitis; Rattus norvegicus, po, Table 8, oral, 0.1 mg/kg): 26.7%
- inhibition in vivo at 0.5 mg/kg (acetic acid peritonitis; Rattus norvegicus, po, Table 8, oral, 0.5 mg/kg): 48%
- inhibition in vivo at 1 mg/kg (acetic acid peritonitis; Rattus norvegicus, po, Table 8, oral, 1 mg/kg): 53.2%
- inhibition in vivo at 10 mg/kg (acetic acid peritonitis; Rattus norvegicus, po, Table 8, oral, 10 mg/kg): 78.8%
- inhibition in vivo at 20 mg/kg (acetic acid peritonitis; Rattus norvegicus, po, Table 8, oral, 20 mg/kg): 94.2%
- ED50 (acetic acid peritonitis; Rattus norvegicus, oral administration 1 hour before i.p. acetic acid): 0.7 mg/kg
- PERITONEAL EXUDATE ml ± E.S. (acetic acid peritonitis; Table 4, os, 10 mg/kg, controls 2.91 ± 0.12): 0.75 ± 0.11 mL
- EXUDATE VOLUME ml ± E.S. (acetic acid peritonitis; Table 8, oral, 0.1 mg/kg, 1 hour before acetic acid): 1.89 ± 0.14 mL
- EXUDATE VOLUME ml ± E.S. (acetic acid peritonitis; Table 8, oral, 0.5 mg/kg): 1.34 ± 0.07 mL
- EXUDATE VOLUME ml ± E.S. (acetic acid peritonitis; Table 8, oral, 1 mg/kg): 1.20 ± 0.10 mL
- EXUDATE VOLUME ml ± E.S. (acetic acid peritonitis; Table 8, oral, 10 mg/kg): 0.54 ± 0.08 mL
- EXUDATE VOLUME ml ± E.S. (acetic acid peritonitis; Table 8, oral, 20 mg/kg): 0.15 ± 0.07 mL
- % INHIBITION (Carrageenin pleuritis; 5 mg/kg): 34.8%
- EXUDATE VOLUME (Carrageenin pleuritis; 5 mg/kg): 1.80 ± 0.29
- % INHIBITION (Carrageenin pleuritis; 10 mg/kg): 63.0%
- EXUDATE VOLUME (Carrageenin pleuritis; 10 mg/kg): 1.02 ± 0.26
- inhibiting action on the pleuric exudative reaction (Carrageenin pleuritis; at the tested doses, result in words): significant inhibiting action

Source: patent publication EP0133934A2, “Pharmacologically active 1,3,4-thiadiazol-(3,2-a)-thieno-(2,3-d)-pyrimidin-5-(H)one derivatives” (NIKEPHARMA S.r.l., priority 1983, dated 1985)
